According to patent US9422267B2, “Fused pyrimidine compounds and use thereof” (Medivation Technologies, Inc., priority 2012, dated 2016):

Columns and labels:
Format in all cases: biochemical
ALK = target: T1, ALK (Homo sapiens, UniProt Q9UM73); test: Caliper kinase profiling: ALK
T1 construct: purchased Caliper LifeSciences (ProfilerPro Kinase Selectivity Assay Kits)

ABL1(G250E) = target: T2, ABL1(G250E) (Homo sapiens, UniProt P00519, G250E); test: Caliper kinase profiling: ABL1(G250E); settings: read-out: Average % Inh @ 1 μM
T2 construct: purchased Caliper LifeSciences (ProfilerPro Kinase Selectivity Assay Kits)

MST2 = target: T3, MST2 (Homo sapiens, UniProt Q13188); test: Caliper kinase profiling: MST2
T3 sequence (Q13188 1-491): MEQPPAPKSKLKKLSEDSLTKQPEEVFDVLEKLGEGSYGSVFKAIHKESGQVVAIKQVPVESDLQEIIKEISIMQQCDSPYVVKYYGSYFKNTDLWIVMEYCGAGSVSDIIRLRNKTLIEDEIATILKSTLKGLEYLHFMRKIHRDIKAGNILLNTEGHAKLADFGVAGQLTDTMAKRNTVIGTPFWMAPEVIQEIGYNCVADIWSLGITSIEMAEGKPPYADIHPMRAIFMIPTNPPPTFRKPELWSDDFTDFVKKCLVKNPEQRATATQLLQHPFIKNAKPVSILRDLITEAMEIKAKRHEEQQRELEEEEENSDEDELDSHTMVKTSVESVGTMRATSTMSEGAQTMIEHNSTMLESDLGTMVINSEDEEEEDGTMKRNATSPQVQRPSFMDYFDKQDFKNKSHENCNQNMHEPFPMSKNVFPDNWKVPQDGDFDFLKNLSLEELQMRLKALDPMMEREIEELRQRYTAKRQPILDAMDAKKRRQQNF

Arg = target: T4, Arg (Homo sapiens, UniProt P42684); test: Caliper kinase profiling: Arg
T4 construct: purchased Caliper LifeSciences (ProfilerPro Kinase Selectivity Assay Kits)
T4 sequence (P42684 whole entry): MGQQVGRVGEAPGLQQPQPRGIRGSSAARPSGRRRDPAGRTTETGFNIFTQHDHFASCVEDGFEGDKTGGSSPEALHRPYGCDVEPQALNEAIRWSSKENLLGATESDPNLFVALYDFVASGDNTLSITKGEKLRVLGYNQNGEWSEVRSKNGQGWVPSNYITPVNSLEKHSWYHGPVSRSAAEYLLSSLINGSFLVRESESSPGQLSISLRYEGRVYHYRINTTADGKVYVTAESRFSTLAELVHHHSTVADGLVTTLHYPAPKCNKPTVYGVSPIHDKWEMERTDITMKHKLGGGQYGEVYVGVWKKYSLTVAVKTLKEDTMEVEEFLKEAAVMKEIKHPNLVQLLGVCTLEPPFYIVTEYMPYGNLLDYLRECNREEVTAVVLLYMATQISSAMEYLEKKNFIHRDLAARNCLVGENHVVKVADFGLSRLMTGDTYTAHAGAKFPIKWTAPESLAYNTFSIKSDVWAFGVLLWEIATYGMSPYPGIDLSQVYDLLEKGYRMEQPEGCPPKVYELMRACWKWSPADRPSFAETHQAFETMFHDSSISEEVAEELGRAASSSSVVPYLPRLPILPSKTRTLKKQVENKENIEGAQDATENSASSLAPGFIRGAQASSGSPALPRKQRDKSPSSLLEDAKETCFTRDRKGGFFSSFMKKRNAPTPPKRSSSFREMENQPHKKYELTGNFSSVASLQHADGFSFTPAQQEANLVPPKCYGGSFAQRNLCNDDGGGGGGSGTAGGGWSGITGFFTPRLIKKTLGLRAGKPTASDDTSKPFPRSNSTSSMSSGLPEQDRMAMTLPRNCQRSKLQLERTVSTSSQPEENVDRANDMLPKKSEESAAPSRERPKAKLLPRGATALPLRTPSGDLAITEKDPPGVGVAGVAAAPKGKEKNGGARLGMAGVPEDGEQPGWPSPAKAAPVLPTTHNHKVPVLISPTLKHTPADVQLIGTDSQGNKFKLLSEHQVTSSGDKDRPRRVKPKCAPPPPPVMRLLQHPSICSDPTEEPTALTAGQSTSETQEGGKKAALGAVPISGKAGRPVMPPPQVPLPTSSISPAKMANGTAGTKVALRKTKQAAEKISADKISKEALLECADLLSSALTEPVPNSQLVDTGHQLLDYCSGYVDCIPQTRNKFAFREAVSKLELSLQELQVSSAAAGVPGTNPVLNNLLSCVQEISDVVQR

LYN = LYN (Homo sapiens, UniProt P07948); test: Caliper kinase profiling: LYN
LYN, sequence (P07948 whole entry): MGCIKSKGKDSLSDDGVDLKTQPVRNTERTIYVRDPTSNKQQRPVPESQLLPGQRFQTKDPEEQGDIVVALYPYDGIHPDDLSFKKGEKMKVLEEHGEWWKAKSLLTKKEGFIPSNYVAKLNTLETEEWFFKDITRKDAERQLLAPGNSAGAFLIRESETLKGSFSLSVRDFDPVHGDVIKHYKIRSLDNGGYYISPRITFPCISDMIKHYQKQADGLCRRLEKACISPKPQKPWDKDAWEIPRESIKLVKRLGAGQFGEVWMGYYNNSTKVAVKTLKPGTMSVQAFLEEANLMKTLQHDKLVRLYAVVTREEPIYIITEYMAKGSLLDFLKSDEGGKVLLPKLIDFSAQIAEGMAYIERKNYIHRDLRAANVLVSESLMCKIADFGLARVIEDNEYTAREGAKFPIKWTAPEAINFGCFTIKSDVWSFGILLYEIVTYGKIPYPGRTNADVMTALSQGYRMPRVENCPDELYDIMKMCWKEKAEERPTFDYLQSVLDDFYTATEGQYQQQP

EPHA5 = EPHA5 (Homo sapiens, UniProt P54756); test: Caliper kinase profiling: EPHA5; settings: EPHA5, 1 μM; read-out: Average % Inh @ 1 μM
EPHA3 = EPHA3 (Homo sapiens, UniProt P29320); test: Caliper kinase profiling: EPHA3; settings: EPHA3, 1 μM; read-out: Average % Inh @ 1 μM
ABL1(Y253F) = target: T5, ABL1(Y253F) (Homo sapiens, UniProt P00519, Y253F); test: Caliper kinase profiling: ABL1(Y253F); settings: read-out: Average % Inh @ 1 μM
T5 construct: purchased Caliper LifeSciences (ProfilerPro Kinase Selectivity Assay Kits)

KDR = KDR (Homo sapiens, UniProt P35968); test: Caliper kinase profiling: KDR; settings: read-out: Average % Inh @ 1 μM
Protocol: The compound was tested at concentrations of 1.0×10^−8 and 1.0×10^−9 M in the RapidKinase192™ panel in duplicate. […] The screening was performed using the Caliper EZReader2, a 4-sipper LabChip, and ProfilerPro Kinase Selectivity Assay Kits 1 and 2. The assay measures the conversion of a fluorescent peptide substrate to a phosphorylated product. Briefly, the reaction mixture was introduced through a capillary sipper onto the microfluidic chip, where the substrate and product were electrophoretically separated and detected by laser-induced fluorescence. The time-dependent fluorescence signal indicates the extent of the reaction.

DCAMKL1 = DCAMKL1 (Homo sapiens, UniProt O15075); test: Caliper kinase profiling: DCAMKL1; settings: DCAMKL1, 1 μM; read-out: Average % Inh @ 1 μM
AMPK-α2/β1/γ1 = target: T6, AMPK-α2/β1/γ1 (Homo sapiens, UniProt P54646); test: Caliper kinase profiling: AMPK-α2/β1/γ1
T6 construct: purchased Caliper LifeSciences (ProfilerPro Kinase Selectivity Assay Kits)
T6 sequence (P54646 whole entry): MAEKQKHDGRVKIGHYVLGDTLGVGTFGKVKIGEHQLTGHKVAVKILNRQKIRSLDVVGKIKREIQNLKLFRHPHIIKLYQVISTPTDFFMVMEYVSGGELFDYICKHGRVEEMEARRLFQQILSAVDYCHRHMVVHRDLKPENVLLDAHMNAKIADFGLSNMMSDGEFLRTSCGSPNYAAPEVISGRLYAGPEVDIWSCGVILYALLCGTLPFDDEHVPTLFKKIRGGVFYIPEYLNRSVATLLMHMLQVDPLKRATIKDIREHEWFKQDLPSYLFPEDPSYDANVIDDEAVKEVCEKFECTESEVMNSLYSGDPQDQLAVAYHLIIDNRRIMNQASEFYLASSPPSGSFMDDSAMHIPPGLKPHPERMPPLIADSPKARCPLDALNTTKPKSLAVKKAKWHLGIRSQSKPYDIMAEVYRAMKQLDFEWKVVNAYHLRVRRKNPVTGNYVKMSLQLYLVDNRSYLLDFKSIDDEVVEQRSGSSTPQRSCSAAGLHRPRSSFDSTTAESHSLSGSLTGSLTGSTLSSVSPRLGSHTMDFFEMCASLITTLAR
T6 sequence (Q9Y478 whole entry partner): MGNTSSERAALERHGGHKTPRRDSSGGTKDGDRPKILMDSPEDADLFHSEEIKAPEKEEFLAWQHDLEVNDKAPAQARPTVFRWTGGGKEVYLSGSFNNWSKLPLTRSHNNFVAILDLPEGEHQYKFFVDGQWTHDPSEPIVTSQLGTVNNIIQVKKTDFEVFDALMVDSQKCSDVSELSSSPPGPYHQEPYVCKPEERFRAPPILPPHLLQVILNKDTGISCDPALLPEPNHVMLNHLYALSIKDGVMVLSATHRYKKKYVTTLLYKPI
T6 sequence (P54619 whole entry partner): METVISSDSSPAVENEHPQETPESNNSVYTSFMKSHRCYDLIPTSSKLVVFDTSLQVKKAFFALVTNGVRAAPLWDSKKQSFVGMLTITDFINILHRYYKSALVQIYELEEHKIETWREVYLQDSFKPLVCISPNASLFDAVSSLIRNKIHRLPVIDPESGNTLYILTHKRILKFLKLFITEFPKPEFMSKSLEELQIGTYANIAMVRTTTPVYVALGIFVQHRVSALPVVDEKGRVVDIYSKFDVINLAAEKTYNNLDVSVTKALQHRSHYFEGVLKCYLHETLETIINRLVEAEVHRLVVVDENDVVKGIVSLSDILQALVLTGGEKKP

DCAMKL2 = DCAMKL2 (Homo sapiens, UniProt Q8N568); test: Caliper kinase profiling: DCAMKL2; settings: DCAMKL2, 1 μM; read-out: Average % Inh @ 1 μM
FGFR3(K650E) = FGFR3(K650E) (Homo sapiens, UniProt P22607, K650E); test: Caliper kinase profiling: FGFR3(K650E); settings: read-out: Average % Inh @ 1 μM
Abl(T315I) = target: T7, Abl(T315I) (Homo sapiens, UniProt P00519, T315I); test: Caliper kinase profiling: Abl(T315I)
T7 construct: purchased Caliper LifeSciences (ProfilerPro Kinase Selectivity Assay Kits)

LCK = LCK (Homo sapiens, UniProt P06239); test: Caliper kinase profiling: LCK
LCK, sequence (P06239 whole entry): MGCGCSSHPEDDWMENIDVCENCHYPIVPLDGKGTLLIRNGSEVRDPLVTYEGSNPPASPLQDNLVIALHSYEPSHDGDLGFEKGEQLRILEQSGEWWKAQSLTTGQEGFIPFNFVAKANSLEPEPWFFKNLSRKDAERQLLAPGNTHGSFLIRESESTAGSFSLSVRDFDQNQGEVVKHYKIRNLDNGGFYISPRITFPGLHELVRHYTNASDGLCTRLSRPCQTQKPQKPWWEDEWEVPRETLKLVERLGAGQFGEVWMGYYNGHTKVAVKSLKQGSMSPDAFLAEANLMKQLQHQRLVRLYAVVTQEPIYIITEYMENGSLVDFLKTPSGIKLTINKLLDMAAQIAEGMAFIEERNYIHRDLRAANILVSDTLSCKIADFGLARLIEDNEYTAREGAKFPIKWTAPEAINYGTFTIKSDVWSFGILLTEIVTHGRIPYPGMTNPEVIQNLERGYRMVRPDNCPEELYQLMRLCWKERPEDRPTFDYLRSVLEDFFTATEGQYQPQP

FLT3 = FLT3 (Homo sapiens, UniProt P36888); test: Caliper kinase profiling: FLT3; settings: FLT3, 1 μM; read-out: Average % Inh @ 1 μM
FGFR3 = FGFR3 (Homo sapiens, UniProt P22607); test: Caliper kinase profiling: FGFR3; settings: FGFR3, 1 μM; read-out: Average % Inh @ 1 μM
[1] = 10 nM, read-out: Average % Inh @ 10 nM
[2] = 100 nM, read-out: Average % Inh @ 100 nM
[3] = 1 μM, read-out: Average % Inh @ 1 μM

T1 sequence (Q9UM73 19-1620): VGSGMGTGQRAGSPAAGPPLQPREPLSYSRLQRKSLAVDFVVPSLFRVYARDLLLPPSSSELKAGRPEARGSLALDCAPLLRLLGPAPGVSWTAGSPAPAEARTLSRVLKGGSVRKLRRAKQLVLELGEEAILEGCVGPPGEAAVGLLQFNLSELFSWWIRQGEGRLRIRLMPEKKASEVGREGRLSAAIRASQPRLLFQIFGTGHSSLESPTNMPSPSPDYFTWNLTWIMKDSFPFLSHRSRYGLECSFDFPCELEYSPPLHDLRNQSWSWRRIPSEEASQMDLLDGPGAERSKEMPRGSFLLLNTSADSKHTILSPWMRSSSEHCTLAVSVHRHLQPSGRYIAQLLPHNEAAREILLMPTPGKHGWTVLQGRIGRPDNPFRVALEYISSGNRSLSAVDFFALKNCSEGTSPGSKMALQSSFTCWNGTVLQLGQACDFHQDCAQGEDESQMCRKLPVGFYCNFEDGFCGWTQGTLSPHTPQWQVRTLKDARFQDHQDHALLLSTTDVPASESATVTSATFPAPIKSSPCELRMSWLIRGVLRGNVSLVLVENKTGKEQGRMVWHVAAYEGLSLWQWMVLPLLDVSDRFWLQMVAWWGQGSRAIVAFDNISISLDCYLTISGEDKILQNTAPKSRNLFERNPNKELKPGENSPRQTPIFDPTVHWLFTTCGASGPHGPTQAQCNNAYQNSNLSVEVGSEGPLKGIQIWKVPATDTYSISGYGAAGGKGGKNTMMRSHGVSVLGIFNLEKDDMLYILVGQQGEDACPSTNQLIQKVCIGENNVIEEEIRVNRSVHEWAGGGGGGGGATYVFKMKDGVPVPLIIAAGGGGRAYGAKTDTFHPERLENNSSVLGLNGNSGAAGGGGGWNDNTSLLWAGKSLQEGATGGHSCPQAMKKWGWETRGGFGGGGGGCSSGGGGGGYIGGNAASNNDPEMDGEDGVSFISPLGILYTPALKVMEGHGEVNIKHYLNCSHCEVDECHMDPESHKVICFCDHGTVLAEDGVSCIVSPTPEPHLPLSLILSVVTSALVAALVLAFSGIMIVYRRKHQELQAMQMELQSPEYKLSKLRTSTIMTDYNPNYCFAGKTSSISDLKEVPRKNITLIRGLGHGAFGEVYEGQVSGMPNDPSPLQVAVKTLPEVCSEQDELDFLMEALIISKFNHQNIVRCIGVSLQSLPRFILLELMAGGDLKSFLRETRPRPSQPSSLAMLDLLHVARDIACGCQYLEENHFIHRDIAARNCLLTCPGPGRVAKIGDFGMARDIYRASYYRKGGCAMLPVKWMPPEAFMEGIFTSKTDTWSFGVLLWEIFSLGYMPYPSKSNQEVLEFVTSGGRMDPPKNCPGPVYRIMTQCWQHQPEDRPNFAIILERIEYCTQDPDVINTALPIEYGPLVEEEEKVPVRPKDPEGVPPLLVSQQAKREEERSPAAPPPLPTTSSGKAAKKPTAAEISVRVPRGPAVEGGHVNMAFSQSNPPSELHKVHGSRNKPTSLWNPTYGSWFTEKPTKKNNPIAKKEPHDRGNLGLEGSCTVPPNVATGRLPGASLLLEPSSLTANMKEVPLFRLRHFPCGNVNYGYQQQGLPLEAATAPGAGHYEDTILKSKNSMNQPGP

O=C(Nc1ccc(F)nc1)C1CCCN1c1nc2c(c(Nc3cc(C4CC4)[nH]n3)n1)CCC2 (single isomer, unassigned) [Compound 2b, 1-(4-(5-cyclopropyl-1H-pyrazol-3-ylamino)-6,7-dihydro-5H-cyclopenta[d]pyrimidin-2-yl)-N-(6-fluoropyridin-3-yl)pyrrolidine-2-carboxamide]
inhibition at 0.01 µM (ALK; [1]): < 39%
inhibition at 0.1 µM (ALK; [2]): < 39%
inhibition at 1 µM (ALK; [3]): > 60%
inhibition at 1 µM (ABL1(G250E)): > 60%
inhibition at 0.01 µM (MST2; MST2, 10 nM, read-out: Average % Inh @ 10 nM): < 39%
inhibition at 0.1 µM (MST2; MST2, 100 nM, read-out: Average % Inh @ 100 nM): < 39%
inhibition at 1 µM (MST2; MST2, 1 μM, read-out: Average % Inh @ 1 μM): > 60%
inhibition at 0.01 µM (Arg; [1]): < 39%
inhibition at 0.1 µM (Arg; [2]): < 39%
inhibition at 1 µM (Arg; [3]): > 60%
inhibition at 0.01 µM (LYN; [1]): < 39%
inhibition at 0.1 µM (LYN; [2]): 40 to 59%
inhibition at 1 µM (LYN; [3]): > 60%
inhibition at 1 µM (EPHA5): > 60%
inhibition at 1 µM (EPHA3): 40 to 59%
inhibition at 1 µM (ABL1(Y253F)): 40 to 59%
inhibition at 1 µM (KDR): 40 to 59%
inhibition at 1 µM (DCAMKL1): 40 to 59%
inhibition at 0.01 µM (AMPK-α2/β1/γ1; AMPK-α2/β1/γ1, 10 nM, read-out: Average % Inh @ 10 nM): < 39%
inhibition at 0.1 µM (AMPK-α2/β1/γ1; AMPK-α2/β1/γ1, 100 nM, read-out: Average % Inh @ 100 nM): 40 to 59%
inhibition at 1 µM (AMPK-α2/β1/γ1; AMPK-α2/β1/γ1, 1 μM, read-out: Average % Inh @ 1 μM): > 60%
inhibition at 1 µM (DCAMKL2): > 60%
inhibition at 1 µM (FGFR3(K650E)): > 60%
inhibition at 0.01 µM (Abl(T315I); [1]): < 39%
inhibition at 0.1 µM (Abl(T315I); [2]): < 39%
inhibition at 1 µM (Abl(T315I); [3]): > 60%
inhibition at 0.01 µM (LCK; [1]): < 39%
inhibition at 0.1 µM (LCK; [2]): < 39%
inhibition at 1 µM (LCK; [3]): > 60%
inhibition at 1 µM (FLT3): 40 to 59%
inhibition at 1 µM (FGFR3): > 60%
